In the NIST ThermoML archive (doi:10.1016/j.fluid.2013.08.005):

Experiment: molar heat capacity at constant pressure; mn = molality of the nth substance listed, in mol/kg
Details: 101 kPa, Liquid, Large sample (1 g) DSC

CCCCCCCC[N+](C)(C)C.[Br-] [octyl trimethyl ammonium bromide] + O
molar heat capacity at constant pressure [J/K/mol]
Details	298.15 K	303.15 K	308.15 K	313.15 K
m1 = 0.00997	75.46	75.44	75.44	75.45
m1 = 0.01501	75.58	75.55	75.54	75.55
m1 = 0.025	75.69	75.66	75.65	75.66
m1 = 0.04	75.85	75.83	75.82	75.83
m1 = 0.05	75.95	75.93	75.92	75.93
m1 = 0.07502	76.27	76.24	76.23	76.25
m1 = 0.08	76.32	76.29	76.29	76.3
m1 = 0.08509	76.4	76.38	76.36	76.36
m1 = 0.09999	76.54	76.51	76.5	76.51
m1 = 0.1202	76.79	76.74	76.74	76.77
m1 = 0.125	76.85	76.82	76.81	76.81
m1 = 0.1397	76.98	76.95	76.93	76.93
m1 = 0.15	77.1	77.08	77.07	77.08
m1 = 0.16	77.21	77.19	77.17	77.15
m1 = 0.175	77.41	77.38	77.37	77.37
m1 = 0.1799	77.47	77.44	77.43	77.42
m1 = 0.1898	77.59	77.55	77.54	77.53
m1 = 0.2	77.66	77.63	77.61	77.61
m1 = 0.2197	77.9	77.87	77.85	77.83
m1 = 0.24	78.15	78.11	78.09	78.08
m1 = 0.25	78.24	78.2	78.18	78.17
m1 = 0.2601	78.37	78.32	78.29	78.28
m1 = 0.2751	78.52	78.47	78.44	78.42
m1 = 0.2801	78.66	78.63	78.59	78.56
m1 = 0.2999	78.81	78.74	78.69	78.67
m1 = 0.3251	79.06	78.99	78.94	78.91
m1 = 0.3497	79.28	79.2	79.15	79.13
m1 = 0.3749	79.51	79.43	79.39	79.37
m1 = 0.4	79.68	79.61	79.57	79.56
m1 = 0.4248	79.91	79.85	79.83	79.83
m1 = 0.4742	80.26	80.22	80.2	80.2
m1 = 0.5499	80.8	80.74	80.73	80.77
m1 = 0.6251	81.38	81.36	81.37	81.41
m1 = 0.7072	81.85	81.84	81.87	81.93
m1 = 1.277	85.58	85.68	85.8	85.96
m1 = 2.09	90.58	90.8	91.05	91.33
